Data: patent US20240150298A1, “ANTIBACTERIAL COMPOUNDS” (Blacksmith Medicines, Inc., priority 2021, published 2024)
Converted amounts (≈) assume the structure as drawn.

Tests used:
E. coli ATCC25922 = test: Bacterial susceptibility testing, MIC by broth microdilution (CLSI); format: cell-based; conditions: Escherichia coli, ATCC25922, broth microdilution, 35° C., 18-24 h; read-out: MIC E. coli ATCC25922
Summary of the method: (§1)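 Broth microdilution per CLSI in cation-adjusted Mueller-Hinton broth, inoculum 3×10^5–7×10^5 CFU/mL, 2-fold serial drug dilutions in DMSO. Incubated in ambient air at 35° C for 18-24 h. MIC taken as lowest concentration preventing visible growth (OD600 nm<0.05).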

K. pneumoniae ATCC13883 = test: as above; format: cell-based; conditions: Klebsiella pneumoniae, ATCC13883, broth microdilution, 35° C., 18-24 h; read-out: MIC K. pneumoniae ATCC13883
Summary of the method: as §1

P. aeruginosa 209 PAO1 = test: as above; format: cell-based; conditions: Pseudomonas aeruginosa, PAO1, broth microdilution, 35° C., 18-24 h; read-out: MIC P. aeruginosa 209 PAO1
Summary of the method: as §1

P. aeruginosa ATCC27835 = test: as above; format: cell-based; conditions: Pseudomonas aeruginosa, ATCC27835, broth microdilution, 35° C., 18-24 h; read-out: MIC P. aeruginosa ATCC27835
Summary of the method: as §1

E. coli LpxC = E. coli LpxC (Escherichia coli, UniProt P0A725); test: LpxC Binding Assay (Rapid Fire MS assay); format: biochemical
Procedure: (§2) IC50 values against E. coli and P. aeruginosa LpxC are determined using a Rapid Fire MS assay as previously described J. Med. Chem. 2012, 55, 1662-1670.

P. aeruginosa LpxC = biological target: T1, P. aeruginosa LpxC (Pseudomonas aeruginosa, UniProt P47205); test: LpxC Binding Assay (Rapid Fire MS assay); format: biochemical
T1 sequence (P47205 1-303): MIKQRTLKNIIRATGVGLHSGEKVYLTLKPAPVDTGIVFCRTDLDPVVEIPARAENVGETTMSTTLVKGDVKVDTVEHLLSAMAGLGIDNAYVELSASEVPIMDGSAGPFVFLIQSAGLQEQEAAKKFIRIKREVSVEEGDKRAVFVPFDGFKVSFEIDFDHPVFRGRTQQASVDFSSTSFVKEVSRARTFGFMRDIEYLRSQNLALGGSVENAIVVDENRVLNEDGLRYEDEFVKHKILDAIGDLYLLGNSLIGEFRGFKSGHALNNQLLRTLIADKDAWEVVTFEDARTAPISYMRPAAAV
Procedure: as §2

K. pneumoniae LpxC = K. pneumoniae LpxC (Klebsiella pneumoniae subsp. pneumoniae, UniProt A6T4N9); test: LpxC Binding Assay (Rapid Fire MS assay); format: biochemical
K. pneumoniae LpxC, sequence (A6T4N9 whole entry): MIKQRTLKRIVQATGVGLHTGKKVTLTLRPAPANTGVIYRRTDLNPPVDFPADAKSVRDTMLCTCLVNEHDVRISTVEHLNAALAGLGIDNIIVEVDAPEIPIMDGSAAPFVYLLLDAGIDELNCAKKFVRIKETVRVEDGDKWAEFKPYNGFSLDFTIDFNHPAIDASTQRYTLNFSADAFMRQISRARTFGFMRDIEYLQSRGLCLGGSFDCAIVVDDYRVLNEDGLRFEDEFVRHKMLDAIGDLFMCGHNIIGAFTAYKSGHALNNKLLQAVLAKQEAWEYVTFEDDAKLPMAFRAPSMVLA

E. coli LpxC, sequence (P0A725 whole entry): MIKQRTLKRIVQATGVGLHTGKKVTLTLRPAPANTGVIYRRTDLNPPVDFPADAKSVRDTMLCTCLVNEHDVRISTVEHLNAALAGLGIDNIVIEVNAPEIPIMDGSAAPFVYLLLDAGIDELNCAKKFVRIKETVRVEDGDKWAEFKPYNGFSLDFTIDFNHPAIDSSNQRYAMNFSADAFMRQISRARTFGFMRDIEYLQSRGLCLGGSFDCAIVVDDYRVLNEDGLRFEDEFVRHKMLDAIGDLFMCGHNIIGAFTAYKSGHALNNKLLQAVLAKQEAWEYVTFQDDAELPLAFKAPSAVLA

Compound	MIC (E. coli ATCC25922) [µg/mL]	MIC (K. pneumoniae ATCC13883) [µg/mL]	MIC (P. aeruginosa 209 PAO1) [µg/mL]	MIC (P. aeruginosa ATCC27835) [µg/mL]	IC50 (E. coli LpxC) [nM]	IC50 (P. aeruginosa LpxC) [nM]	IC50 (K. pneumoniae LpxC) [nM]
C[C@H](O)c1nccn1[C@@H](/C=C/c1ccc(-c2ccc(OC3CCN(CCO)CC3)cc2)cc1)CCO [Compound 18, (R,E)-3-(2-((S)-1-hydroxyethyl)-1H-imidazol-1-yl)-5-(4′-((1-(2-hydroxyethyl)piperidin-4-yl)oxy)-[1,1′-biphenyl]-4-yl)pent-4-en-1-ol]	8 (≈ 16.3 µM)	16 (≈ 32.5 µM)	4 (≈ 8.14 µM)	4 (≈ 8.14 µM)	3.6	50.1	5.4
COC(CN)COc1ccc(-c2ccc(/C=C/[C@@H](CO)n3ccnc3[C@H](C)O)cc2)cc1 (mixture of isomers) [Compound 27, (2S,E)-4-(4′-(3-amino-2-methoxypropoxy)-[1,1′-biphenyl]-4-yl)-2-(2-((S)-1-hydroxyethyl)-1H-imidazol-1-yl)but-3-en-1-ol]	8 (≈ 18.3 µM)	32 (≈ 73.1 µM)	4 (≈ 9.14 µM)	4 (≈ 9.14 µM)	2.9	41.2	6.2
